{"source": "patent US6362188B1", "about": "“Farnesyl protein transferase inhibitors” (Schering Corporation, priority 1998, dated 2002)", "system": "Human tumor cells", "assay": "Soft Agar Assay (anchorage-independent growth)", "assay_type": "cell-based", "details": "colony outgrowth in soft agar, stated as a range for the group", "procedure": "Anchorage-independent growth is a characteristic of tumorigenic cell lines. Human tumor cells can be suspended in growth medium containing 0.3% agarose and an indicated concentration of a farnesyl transferase inhibitor. The solution can be overlayed onto growth medium solidified with 0.6% agarose containing the same concentration of farnesyl transferase inhibitor as the top layer. After the top layer is solidified, plates can be incubated for 10-16 days at 37° C. under 5% CO2 to allow colony outgrowth. After incubation, the colonies can be stained by overlaying the agar with a solution of MTT (3-[4,5-dimethyl-thiazol-2-yl]-2,5-diphenyltetrazolium bromide, Thiazolyl blue) (1 mg/mL in PBS). Colonies can be counted and the IC50's can be determined."}
{"smiles": "Cc1cn(CC2CN(C(=O)C3CN(C4c5ccc(Cl)cc5CCc5cccnc54)CCN3C(=O)OC3CCCCC3)CCS2(=O)=O)cn1", "note": "(single isomer, unassigned) [47(L)]", "values": [{"measurement": "IC50", "value": "0.05 to 30", "unit": "nM"}]}
{"smiles": "Cc1nc(C)n(CC2CCCN(C(=O)C3CN(C4c5ccc(Cl)cc5CCc5cccnc54)CCN3C(=O)OC3CCCCC3)C2)c1C", "note": "(single isomer, unassigned) [47(P)]", "values": [{"measurement": "IC50", "value": "0.05 to 30", "unit": "nM"}]}
{"smiles": "Cc1cn(CCC2CCCN2C(=O)C2CN(C3c4ccc(Cl)cc4CCc4cccnc43)CCN2C(=O)OC2CCCCC2)cn1", "note": "(single isomer, unassigned) [47(S)]", "values": [{"measurement": "IC50", "value": "0.05 to 30", "unit": "nM"}]}
{"smiles": "CC(C)(C)OC(=O)N1CCN(C2c3ccc(Cl)cc3CCc3cc(Br)cnc32)CC1C(=O)N1CCCCC1CCCn1ccnc1", "note": "(single isomer, unassigned) [Example 145]", "values": [{"measurement": "IC50", "value": "0.5 to 30", "unit": "nM"}]}
{"smiles": "Cc1[nH]cnc1CC1CN(C(=O)C2CN(C3c4ccc(Cl)cc4CCc4cc(Br)cnc43)CCN2C(=O)OC(C)(C)C)CCS1(=O)=O", "note": "(single isomer, unassigned) [Example 156]", "values": [{"measurement": "IC50", "value": "0.05 to 30", "unit": "nM"}]}
{"smiles": "Cc1[nH]cnc1CC1CN(C(=O)C2CN(C3c4ccc(Cl)cc4CCc4cc(Br)cnc43)CCN2C(=O)OC2CCCCC2)CCS1(=O)=O", "note": "(single isomer, unassigned) [Example 212]", "values": [{"measurement": "IC50", "value": "0.05 to 30", "unit": "nM"}]}
{"smiles": "Cc1cn(CC2CCCN(C(=O)C3CN(C4c5ncccc5CCc5cccc(Cl)c54)CCN3C(=O)OC3CCCCC3)C2)cn1", "note": "(single isomer, unassigned) [Example 391]", "values": [{"measurement": "IC50", "value": "0.05 to 30", "unit": "nM"}]}
{"smiles": "Cc1nccn1CC1CCCN(C(=O)C2CN(C3c4ncccc4CCc4cccc(Cl)c43)CCN2C(=O)OC(C)(C)C)C1", "note": "(single isomer, unassigned) [Example 396]", "values": [{"measurement": "IC50", "value": "0.05 to 30", "unit": "nM"}]}
{"smiles": "Cc1cn(CC2CCCN(C(=O)C3CN(C4c5ncccc5CCc5cc(Cl)cc(Br)c54)CCN3C(=O)OC(C)(C)C)C2)cn1", "note": "(single isomer, unassigned) [Example 407]", "values": [{"measurement": "IC50", "value": "0.05 to 30", "unit": "nM"}]}
{"smiles": "Cc1cn(CC2CCCCN(C(=O)C3CN(C4c5ccc(Cl)cc5CCc5cccnc54)CCN3C(=O)OC3CCCCC3)C2)cn1", "note": "(single isomer, unassigned) [Example 409]", "values": [{"measurement": "IC50", "value": "0.05 to 30", "unit": "nM"}]}
{"smiles": "Cc1cn(CC2(O)CCCN(C(=O)[C@H]3CN([C@H]4c5ccc(Cl)cc5CCc5cccnc54)CCN3C(=O)OCc3ccccc3)C2)cn1", "note": "(single isomer, unassigned) [Example 422]", "values": [{"measurement": "IC50", "value": "0.05 to 30", "unit": "nM"}]}
{"smiles": "Cc1cn(C[C@]2(O)CCCN(C(=O)[C@H]3CN([C@H]4c5ccc(Cl)cc5CCc5cccnc54)CCN3C(=O)OC3CCCCC3)C2)cn1", "note": "(stereo in doubt) [Example 419]", "values": [{"measurement": "IC50", "value": "0.05 to 30", "unit": "nM"}]}
{"smiles": "Cc1nccn1CC1CN(C(=O)C2CN(C3c4ccc(Cl)cc4CCc4cccnc43)CCN2C(=O)OC(C)(C)C)CCS1(=O)=O", "note": "(stereo not shown) [35(E)]", "values": [{"measurement": "IC50", "value": "0.05 to 30", "unit": "nM"}]}
{"smiles": "CC(C)(C)OC(=O)N1CCN(C2c3ccc(Cl)cc3CCc3cc(Br)cnc32)C[C@@H]1C(=O)N1CCC[C@H](Cn2ccnc2)C1", "note": "(stereo partly shown) [Example 1]", "values": [{"measurement": "IC50", "value": "0.5 to 30", "unit": "nM"}]}
{"smiles": "CC(C)(C)OC(=O)N1CCN(C2c3ccc(Cl)cc3CCc3cc(Br)cnc32)CC1C(=O)N1CC[S+]([O-])C(Cn2ccnc2)C1", "note": "(stereo not shown) [Example 7]", "values": [{"measurement": "IC50", "value": "0.5 to 30", "unit": "nM"}]}
{"smiles": "Cc1nccn1C[C@@H]1CCCN(C(=O)[C@H]2CN([C@H]3c4ccc(Cl)cc4CCc4cccnc43)CCN2C(=O)OC(C)(C)C)C1", "note": "[Example 30]", "values": [{"measurement": "IC50", "value": "0.5 to 30", "unit": "nM"}]}
{"smiles": "Cc1cn(C[C@@H]2CCCN(C(=O)[C@H]3CN([C@H]4c5ccc(Cl)cc5CCc5cccnc54)CCN3C(=O)OC(C)(C)C)C2)cn1", "note": "[Example 32]", "values": [{"measurement": "IC50", "value": "0.5 to 30", "unit": "nM"}]}
{"smiles": "CCc1nccn1CC1CCCN(C(=O)C2CN(C3c4ccc(Cl)cc4CCc4cccnc43)CCN2C(=O)OC(C)(C)C)C1", "note": "(stereo not shown) [Example 34]", "values": [{"measurement": "IC50", "value": "0.5 to 30", "unit": "nM"}]}
{"smiles": "Cc1nccn1CC1CCCN(C(=O)C2CN(C3c4ccc(Cl)cc4CCc4cccnc43)CCN2C(=O)NC(C)(C)C)C1", "note": "(stereo not shown) [Example 49]", "values": [{"measurement": "IC50", "value": "0.5 to 30", "unit": "nM"}]}
{"smiles": "Cc1cn(CC2CCCN(C(=O)C3CN(C4c5ccc(Cl)cc5CCc5cccnc54)CCN3C(=O)NC(C)(C)C)C2)cn1", "note": "(stereo not shown) [Example 50]", "values": [{"measurement": "IC50", "value": "0.5 to 30", "unit": "nM"}]}
{"smiles": "CC(C)(C)OC(=O)N1CCN(C2c3ccc(Cl)cc3CCc3cc(Br)cnc32)C[C@@H]1C(=O)N1CCCCC1CCn1ccnc1", "note": "(stereo partly drawn) [Example 74, 1,1-dimethylethyl-4-(3-bromo-8-chloro-6,11-dihydro-5H-benzo[5,6]cyclohepta[1,2-b]pyridin-11-yl)-2(R)-[[2-[2-(1H-imidazol-1-yl)ethyl]-1-piperidinyl]carbonyl]-1-piperazinecarboxylate]", "values": [{"measurement": "IC50", "value": "0.5 to 30", "unit": "nM"}]}
{"smiles": "CC(C)(C)OC(=O)N1CCN([C@H]2c3ccc(Cl)cc3CCc3cc(Br)cnc32)C[C@@H]1C(=O)N1CCCCC1CCn1ccnc1", "note": "(stereo partly drawn) [Example 138, 1,1-dimethylethyl 4-(3-bromo-8-chloro-6,11-dihydro-5H-benzo[5,6]cyclohepta[1,2-b]pyridin-11(S)-yl)-2(R)-[[2-[2-(1H-imidazol-1-yl)ethyl]-1-piperidinyl]carbonyl]-1-piperazinecarboxylate]", "values": [{"measurement": "IC50", "value": "0.5 to 30", "unit": "nM"}]}
{"smiles": "Cc1cn(CC2CN(C(=O)C3CN(C4c5ccc(Cl)cc5CCc5cc(Br)cnc54)CCN3C(=O)OC(C)(C)C)CCS2(=O)=O)cn1", "note": "(stereo not shown) [Example 150]", "values": [{"measurement": "IC50", "value": "0.05 to 30", "unit": "nM"}]}
{"smiles": "Cc1nccn1CC1CN(C(=O)C2CN(C3c4ccc(Cl)cc4CCc4cc(Br)cnc43)CCN2C(=O)OC(C)(C)C)CCS1(=O)=O", "note": "(stereo not shown) [Example 151]", "values": [{"measurement": "IC50", "value": "0.05 to 30", "unit": "nM"}]}
{"smiles": "Cc1cncn1CC1CN(C(=O)C2CN(C3c4ccc(Cl)cc4CCc4cc(Br)cnc43)CCN2C(=O)OC(C)(C)C)CCS1(=O)=O", "note": "(stereo not shown) [Example 152]", "values": [{"measurement": "IC50", "value": "0.05 to 30", "unit": "nM"}]}
{"smiles": "Cc1cncn1C[C@H]1CN(C(=O)[C@H]2CN([C@H]3c4ccc(Cl)cc4CCc4cc(Br)cnc43)CCN2C(=O)OC(C)(C)C)CCS1(=O)=O", "note": "[Example 154]", "values": [{"measurement": "IC50", "value": "0.05 to 30", "unit": "nM"}]}
{"smiles": "CC(C)(C)OC(=O)N1CCN(C2c3ccc(Cl)cc3CCc3cc(Br)cnc32)CC1C(=O)N1CCS(=O)(=O)C(Cc2c[nH]cn2)C1", "note": "(stereo not shown) [Example 155]", "values": [{"measurement": "IC50", "value": "0.05 to 30", "unit": "nM"}]}
{"smiles": "Cc1nc(C)n(CC2CCCN(C(=O)C3CN(C4c5ccc(Cl)cc5CCc5cc(Br)cnc54)CCN3C(=O)OC(C)(C)C)C2)c1C", "note": "(stereo not shown) [Example 158]", "values": [{"measurement": "IC50", "value": "0.05 to 30", "unit": "nM"}]}
{"smiles": "Cc1c(CO)ncn1CC1CCCN(C(=O)C2CN(C3c4ccc(Cl)cc4CCc4cc(Br)cnc43)CCN2C(=O)OC(C)(C)C)C1", "note": "(stereo not shown) [Example 160]", "values": [{"measurement": "IC50", "value": "0.05 to 30", "unit": "nM"}]}
{"smiles": "Cc1cn(C[C@@H]2CCCN(C(=O)[C@H]3CN([C@@H]4c5ccc(Cl)cc5CCc5cc(Br)cnc54)CCN3C(=O)OC(C)C)C2)cn1", "note": "[Example 169]", "values": [{"measurement": "IC50", "value": "0.05 to 30", "unit": "nM"}]}
{"smiles": "Cc1cn(C[C@@H]2CCCN(C(=O)[C@H]3CN([C@H]4c5ccc(Cl)cc5CCc5cc(Br)cnc54)CCN3C(=O)OC(C)C)C2)cn1", "note": "[Example 170]", "values": [{"measurement": "IC50", "value": "0.05 to 30", "unit": "nM"}]}
{"smiles": "Cc1cn(C[C@@H]2CCCN(C(=O)[C@H]3CN([C@@H]4c5ccc(Cl)cc5CCc5cc(Br)cnc54)CCN3C(=O)OC3CCCCC3)C2)cn1", "note": "[Example 171]", "values": [{"measurement": "IC50", "value": "0.05 to 30", "unit": "nM"}]}
{"smiles": "Cc1cn(C[C@@H]2CCCN(C(=O)[C@H]3CN([C@H]4c5ccc(Cl)cc5CCc5cc(Br)cnc54)CCN3C(=O)OC3CCCCC3)C2)cn1", "note": "[Example 172]", "values": [{"measurement": "IC50", "value": "0.05 to 30", "unit": "nM"}]}
{"smiles": "Cc1cn(C[C@@H]2CCCN(C(=O)[C@H]3CN([C@@H]4c5ccc(Cl)cc5CCc5cc(Br)cnc54)CCN3C(=O)OCC(C)(C)C)C2)cn1", "note": "[Example 173]", "values": [{"measurement": "IC50", "value": "0.05 to 30", "unit": "nM"}]}
{"smiles": "Cc1cn(C[C@@H]2CCCN(C(=O)[C@H]3CN([C@H]4c5ccc(Cl)cc5CCc5cc(Br)cnc54)CCN3C(=O)OCC(C)(C)C)C2)cn1", "note": "[Example 174]", "values": [{"measurement": "IC50", "value": "0.05 to 30", "unit": "nM"}]}
{"smiles": "Cc1cn(CC2CCCN(C(=O)C3CN(C4c5ccc(Cl)cc5CCc5cc(Br)cnc54)CCN3C(=O)NC(C)(C)C)C2)cn1", "note": "(stereo not shown) [Example 177]", "values": [{"measurement": "IC50", "value": "0.05 to 30", "unit": "nM"}]}
{"smiles": "Cc1cn(C[C@@H]2CCCN(C(=O)[C@H]3CN([C@@H]4c5ccc(Cl)cc5CCc5cc(Br)cnc54)CCN3C(=O)C(C)(C)C)C2)cn1", "note": "[Example 179]", "values": [{"measurement": "IC50", "value": "0.05 to 30", "unit": "nM"}]}
